Experimental data taken from PMC6025407, “Asperversins A and B, Two Novel Meroterpenoids with an Unusual 5/6/6/6 Ring from the Marine-Derived Fungus Aspergillus versicolor” (Marine Drugs, 2018).
In brackets after ≈: the same amount, converted by molar mass. Like-named read-outs stand apart in the source and are kept apart here.

Key:
[1] = in vitro; conditions: human, A549 cells
Protocol: Four human cancer cell lines (A549, MCF-7, HepG2, and HL-60 cells), together with one noncancerous cell line, the human bronchial epithelial cells Beas-2B, were used in the cytotoxic activity assay. […]
medium (HyClone, Logan, UT, USA), supplemented with 10% fetal bovine serum (HyClone) at 37 °C in a humidified atmosphere with 5% CO 2 . The cell survival assay was performed using the MTT method. Briefly, 100 μ L of a suspension of the adherent cells was seeded into each well of the 96 - well culture plates and allowed to adhere for 12 h before addition of the test compounds. The suspended cells were seeded at an initial density of 1 × 10^5 cells/mL immediately before the addition of the drug. Each tumor cell line was exposed for 48 h in triplicate to the test compounds at concentrations […]
positive controls. After incubation, culture supernatants were removed and exchanged with medium containing 0.5 mg/mL MTT. Then, the cells were incubated for 4 h at 37 °C in darkness , followed by the removal of the medium and adding 100 μ L dimethyl sulfoxide. The absorbance at 570 nm was detected and the data were expressed as the mean percentage of absorbance in treated vs. control cells.

[2] = Cytotoxic assay (MTT), noncancerous cell line; conditions: human, Beas-2B bronchial epithelial cells (noncancerous)
Protocol: (§1) Four human cancer cell lines (A549, MCF-7, HepG2, and HL-60 cells), together with one noncancerous cell line, the human bronchial epithelial cells Beas-2B, were used in the cytotoxic activity assay. All cells were cultured in DMEM or RPMI- 1640 medium (HyClone, Logan, UT, USA), supplemented with 10% fetal bovine serum (HyClone) at 37 °C in a humidified atmosphere with 5% CO 2 . The cell survival assay was performed using the MTT method. Briefly, 100 μ L of a suspension of the adherent cells was seeded into each well of the 96 - well culture plates and allowed to adhere for 12 h before addition of the test compounds. The suspended cells were seeded at an initial density of 1 × 10^5 cells/mL immediately before the addition of the drug. Each tumor cell line was exposed for 48 h in triplicate to the test compounds at concentrations of 0.0625 , 0.32, 1.6, 8, and 40 μ M, with DDP (cis - platin, Sigma) and paclitaxel as positive controls. After incubation, culture supernatants were removed and exchanged with medium containing 0.5 mg/mL MTT. Then, the cells were incubated for 4 h at 37 °C in darkness , followed by the removal of the medium and adding 100 μ L dimethyl sulfoxide. The absorbance at 570 nm was detected and the data were expressed as the mean percentage of absorbance in treated vs. control cells.

[3] = Cytotoxic assay (MTT); conditions: human
Protocol: as §1

[4] = system: methicillin-resistant Staphylococcus aureus (MRSA); experiment: Antimicrobial (printed 'antifungal') bioassay; type: cell-based
Protocol: (§2) The tested pathogenic fungi, Staphylococcus aureus (MRSA), methicillin-sensitive Staphylococcus aureus (MSSA), Escherichia coli and Pseudomonas aeruginosa, were provided by Tongji Hospital of Tongji Medical College of Huazhong University of Science and Technology. All samples dissolved in MeOH were tested for antifungal activity in vitro by mycelial growth inhibitory rate method, a Poison Food Technique.
(§3) Potato dextrose agar (PDA) medium was used as the medium for all test fungi.
(§4) The media (100 ml) incorporating test samples were inoculated at the center of agar discs of the test fungi (4 mm diameter). Three replicate plates for each fungus were incubated at 26 °C for all test fungi. Control plates containing media mixed with MeOH (1 ml) were in cluded. After incubation for 24–48 h, the mycelial growth of fungi (mm) in both treated (T) and control (C) Petri dishes was measured diametrically in three different directions (decussation method) until the fungal growth in the control dishes was almost complete. The percentage of growth inhibition ( I) was calculated using the […]
(§5) Table S2. Antifungal Effects of Compounds 1−8 (MIC, μg/ml). fungi MRSA MSSA E. coli P. aeruginosa

[5] = system: methicillin-sensitive Staphylococcus aureus (MSSA); experiment: Antimicrobial (printed 'antifungal') bioassay; type: cell-based
Protocol: as §2, §3, §4, §5

[6] = system: Pseudomonas aeruginosa; experiment: Antimicrobial (printed 'antifungal') bioassay; type: cell-based
Protocol: as §2, §3, §4, §5

[7] = system: Escherichia coli; experiment: Antimicrobial (printed 'antifungal') bioassay; type: cell-based
Protocol: as §2, §3, §4, §5

[8] = target: human recombinant AChE (Homo sapiens, UniProt P22303); experiment: biochemical; conditions: for inhibition at 100 µM: AChE, read-out: Inhibitory Ratio at 100 μM; for IC50: read-out: IC50 Value against AChE
Protocol: Briefly, 20 µL AChE (0.05 U/mL) and 20 µL different concentrations of compounds (0.1 M phosphate buffer, pH 8.0) containing 0.1% Triton X-100) were pre-incubated at 37 °C for 30 min, then 160 µL of the assay solution which consisted of a 0.1 M phosphate buffer pH 8.0, with the addition of 600 µM 5,5’-dithio-bis (2-nitrobenzoic acid) and 550 µM acetylthiocholine iodide (ATCh) were added in the 96-well plates. The absorbance value at 425 nm was recorded for 15 min and enzyme activity was calculated from the slope of the obtained linear trend. The reaction rates were compared and the % inhibition due to the presence of tested inhibitors was calculated. Each concentration was analyzed in triplicate, and IC50 values were determined graphically from log concentration inhibition curves (Graphpad Prism 5, GraphPad Software Inc., San Diego, CA, USA).

[9] = system: methicillin-resistant Staphylococcus aureus (MRSA); conditions: cited from earlier work

human recombinant AChE, sequence (P22303 32-614): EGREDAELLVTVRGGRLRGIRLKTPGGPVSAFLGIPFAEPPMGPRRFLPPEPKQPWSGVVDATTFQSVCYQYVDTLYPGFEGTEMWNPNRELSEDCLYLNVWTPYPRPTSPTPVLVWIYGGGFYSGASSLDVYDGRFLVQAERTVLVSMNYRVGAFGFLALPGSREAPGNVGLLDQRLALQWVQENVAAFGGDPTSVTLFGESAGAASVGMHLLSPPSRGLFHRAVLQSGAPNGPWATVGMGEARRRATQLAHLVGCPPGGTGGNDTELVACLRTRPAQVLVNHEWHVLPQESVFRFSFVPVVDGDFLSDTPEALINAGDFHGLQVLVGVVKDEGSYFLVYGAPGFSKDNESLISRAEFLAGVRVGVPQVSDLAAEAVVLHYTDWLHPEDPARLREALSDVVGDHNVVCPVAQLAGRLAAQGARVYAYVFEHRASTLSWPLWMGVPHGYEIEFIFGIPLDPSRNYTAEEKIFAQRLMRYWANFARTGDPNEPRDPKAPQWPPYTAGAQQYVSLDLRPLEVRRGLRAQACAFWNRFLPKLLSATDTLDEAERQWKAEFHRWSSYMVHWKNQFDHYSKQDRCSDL

Molecule | IC50 at 48 h [1] | IC50 at 48 h [2] | IC50 at 48 h ([3]; HL-60 cells) | IC50 at 48 h ([3]; HepG2 cells) | IC50 at 48 h ([3]; MCF-7 cells) | MIC ([4]; read-out: MIC) | MIC ([5]; read-out: MIC) | MIC ([6]; P. aeruginosa, read-out: MIC) | MIC ([7]; E. coli, read-out: MIC) | inhibition at 100 µM [8] | IC50 [8] | MIC [4] | MIC [5] | MIC [6] | MIC [7] | activity against MRSA (in words) [9]
COC(=O)C[C@@H]1OC(C)(C)[C@@H]2[C@H](OC(C)=O)C[C@@]3(C)Oc4cc(C)oc(=O)c4C[C@@H]3[C@@]12C [Compound 1, Asperversin A] | > 40 µM | > 40 µM | > 40 µM | > 40 µM | > 40 µM | > 100 µg/mL | > 100 µg/mL | > 100 µg/mL | > 100 µg/mL | 35.7% | > 40 µM |  |  |  |  | 
CC(=O)O[C@@H]1C[C@@]2(C)Oc3cc(C)oc(=O)c3C[C@@H]2[C@@]2(C)[C@H](CC(=O)O)OC(C)(C)[C@H]12 [Compound 2, Asperversin B] | > 40 µM | > 40 µM | > 40 µM | > 40 µM | > 40 µM | > 100 µg/mL | > 100 µg/mL | > 100 µg/mL | > 100 µg/mL | 36.2% | > 40 µM |  |  |  |  | 
C=C(C)[C@@H]1[C@H](OC(C)=O)C[C@@]2(C)Oc3cc(C)oc(=O)c3C[C@@H]2[C@@]1(C)[C@H](CC(=O)OC)OC(C)=O [Compound 3, Asperversin C] | > 40 µM | > 40 µM | > 40 µM | > 40 µM | > 40 µM | > 100 µg/mL | > 100 µg/mL | > 100 µg/mL | > 100 µg/mL | 27.6% | > 40 µM |  |  |  |  | 
Cc1cc2c(c(=O)o1)C[C@@H]1[C@@]3(C)[C@@H](O)CC(=O)OC(C)(C)[C@@H]3CC[C@@]1(C)O2 [Compound 4, Asperversin D] | > 40 µM | > 40 µM | > 40 µM | > 40 µM | > 40 µM | > 100 µg/mL | > 100 µg/mL | > 100 µg/mL | > 100 µg/mL | 50.2% | > 40 µM |  |  |  |  | 
CC(=O)OC1CC2(C)Oc3cc(C)oc(=O)c3CC2C2(C)C(O)CC(=O)OC(C)(C)C12 (stereo not drawn) [Compound 5, Asperversin E] | > 40 µM | > 40 µM | > 40 µM | > 40 µM | > 40 µM | > 100 µg/mL | > 100 µg/mL | > 100 µg/mL | > 100 µg/mL | 48.7% | > 40 µM |  |  |  |  | 
CC(=O)O[C@H]1CC(=O)OC(C)(C)[C@@H]2[C@H](OC(C)=O)C[C@@]3(C)Oc4cc(C)oc(=O)c4C[C@@H]3[C@@]12C [Compound 6, Asperversin F] | > 40 µM | > 40 µM | > 40 µM | > 40 µM | > 40 µM | > 100 µg/mL | > 100 µg/mL | > 100 µg/mL | > 100 µg/mL | 62.9% | > 40 µM |  |  |  |  | 
CC(=O)OC1CC2(C)Oc3cc(C)oc(=O)c3CC2C2(C)C=CC(=O)C(C)(C)C12 (stereo not drawn) [Compound 7, Asperversin G] | > 40 µM | > 40 µM | > 40 µM | > 40 µM | > 40 µM | > 100 µg/mL | > 100 µg/mL | > 100 µg/mL | > 100 µg/mL | 92.4% | 13.6 µM |  |  |  |  | 
Cc1cc2c(c(=O)o1)C[C@@H]1[C@@]3(C)[C@@H](O)CC(=O)OC(C)(C)[C@@H]3[C@H](O)C[C@@]1(C)O2 [Compound 8, asperdemin] | > 40 µM | > 40 µM | > 40 µM | > 40 µM | > 40 µM | > 100 µg/mL | > 100 µg/mL | > 100 µg/mL | > 100 µg/mL | 25.3% | > 40 µM |  |  |  |  | 
CN[C@H](CC(C)C)C(=O)N[C@H]1C(=O)N[C@@H](CC(N)=O)C(=O)N[C@H]2C(=O)N[C@H]3C(=O)N[C@H](C(=O)N[C@H](C(=O)O)c4cc(O)cc(O)c4-c4cc3ccc4O)[C@H](O)c3ccc(c(Cl)c3)Oc3cc2cc(c3O[C@@H]2O[C@H](CO)[C@@H](O)[C@H](O)[C@H]2O[C@H]2C[C@](C)(N)[C@H](O)[C@H](C)O2)Oc2ccc(cc2Cl)[C@H]1O [vancomycin, reference compound] |  |  |  |  |  |  |  |  |  |  |  | 1.2 µg/mL (≈ 0.828 µM) | 0.5 µg/mL (≈ 0.345 µM) | 0.8 µg/mL (≈ 0.552 µM) | 0.5 µg/mL (≈ 0.345 µM) | 
Apiroaspertrione A |  |  |  |  |  |  |  |  |  |  |  |  |  |  |  | effective activity
